Experiment: xn = mol fraction of the nth substance listed
Details: Liquid

CC(C)(C)O [2-methylpropan-2-ol] + O
Details | mass density [kg/m3]
298.15 K, 100000 kPa, Constant-volume piezometry, x1 = 0.04241 | 1010.64
298.15 K, 100000 kPa, Constant-volume piezometry, x1 = 0.05887 | 1003.04
298.15 K, 100000 kPa, Constant-volume piezometry, x1 = 0.08929 | 988.13
298.15 K, 100000 kPa, Constant-volume piezometry, x1 = 0.1125 | 976.75
298.15 K, 100000 kPa, Constant-volume piezometry, x1 = 0.1566 | 957.51
298.15 K, 100000 kPa, Constant-volume piezometry, x1 = 0.208 | 940.04
298.15 K, 100000 kPa, Constant-volume piezometry, x1 = 0.3023 | 915
298.15 K, 100000 kPa, Constant-volume piezometry, x1 = 0.4045 | 895.56
298.15 K, 100000 kPa, Constant-volume piezometry, x1 = 0.4827 | 884.31
298.15 K, 100000 kPa, Constant-volume piezometry, x1 = 0.5344 | 877.51
298.15 K, 100000 kPa, Constant-volume piezometry, x1 = 0.6029 | 869.84
308.15 K, 101.3 kPa, Vibrating tube method, x1 = 0.0248 | 978.65
308.15 K, 101.3 kPa, Vibrating tube method, x1 = 0.04241 | 969.43
308.15 K, 101.3 kPa, Vibrating tube method, x1 = 0.05887 | 959.67
308.15 K, 101.3 kPa, Vibrating tube method, x1 = 0.08929 | 941.57
308.15 K, 101.3 kPa, Vibrating tube method, x1 = 0.1125 | 928.56
308.15 K, 101.3 kPa, Vibrating tube method, x1 = 0.1566 | 906.33
308.15 K, 101.3 kPa, Vibrating tube method, x1 = 0.208 | 886.22
308.15 K, 101.3 kPa, Vibrating tube method, x1 = 0.3023 | 856.97
308.15 K, 101.3 kPa, Vibrating tube method, x1 = 0.4045 | 834.17
308.15 K, 101.3 kPa, Vibrating tube method, x1 = 0.4827 | 820.93
308.15 K, 101.3 kPa, Vibrating tube method, x1 = 0.5344 | 812.83
308.15 K, 101.3 kPa, Vibrating tube method, x1 = 0.6029 | 803.86
308.15 K, 101.3 kPa, Vibrating tube method, x1 = 0.726 | 790.54
308.15 K, 101.3 kPa, Vibrating tube method, x1 = 0.7999 | 784.37
308.15 K, 101.3 kPa, Vibrating tube method, x1 = 0.8711 | 778.45
308.15 K, 101.3 kPa, Vibrating tube method, x1 = 0.9183 | 775.09
308.15 K, 101.3 kPa, Vibrating tube method, x1 = 0.9574 | 772.63
308.15 K, 101.3 kPa, Vibrating tube method, x1 = 1 | 770.14
308.15 K, 10000 kPa, Constant-volume piezometry, x1 = 0.0248 | 982.6
308.15 K, 10000 kPa, Constant-volume piezometry, x1 = 0.04241 | 973.49
308.15 K, 10000 kPa, Constant-volume piezometry, x1 = 0.05887 | 963.89
308.15 K, 10000 kPa, Constant-volume piezometry, x1 = 0.08929 | 946.1
308.15 K, 10000 kPa, Constant-volume piezometry, x1 = 0.1125 | 933.31
308.15 K, 10000 kPa, Constant-volume piezometry, x1 = 0.1566 | 911.53
308.15 K, 10000 kPa, Constant-volume piezometry, x1 = 0.208 | 891.88
308.15 K, 10000 kPa, Constant-volume piezometry, x1 = 0.3023 | 863.34
308.15 K, 10000 kPa, Constant-volume piezometry, x1 = 0.4045 | 841.23
308.15 K, 10000 kPa, Constant-volume piezometry, x1 = 0.4827 | 828.5
308.15 K, 10000 kPa, Constant-volume piezometry, x1 = 0.5344 | 820.71
308.15 K, 10000 kPa, Constant-volume piezometry, x1 = 0.6029 | 812.19
308.15 K, 10000 kPa, Constant-volume piezometry, x1 = 0.726 | 799.44
308.15 K, 25000 kPa, Constant-volume piezometry, x1 = 0.0248 | 988.54
308.15 K, 25000 kPa, Constant-volume piezometry, x1 = 0.04241 | 979.65
308.15 K, 25000 kPa, Constant-volume piezometry, x1 = 0.05887 | 970.24
308.15 K, 25000 kPa, Constant-volume piezometry, x1 = 0.08929 | 952.8
308.15 K, 25000 kPa, Constant-volume piezometry, x1 = 0.1125 | 940.3
308.15 K, 25000 kPa, Constant-volume piezometry, x1 = 0.1566 | 919.1
308.15 K, 25000 kPa, Constant-volume piezometry, x1 = 0.208 | 900.03
308.15 K, 25000 kPa, Constant-volume piezometry, x1 = 0.3023 | 872.28
308.15 K, 25000 kPa, Constant-volume piezometry, x1 = 0.4045 | 850.99
308.15 K, 25000 kPa, Constant-volume piezometry, x1 = 0.4827 | 838.84
308.15 K, 25000 kPa, Constant-volume piezometry, x1 = 0.5344 | 831.4
308.15 K, 25000 kPa, Constant-volume piezometry, x1 = 0.6029 | 823.36
308.15 K, 25000 kPa, Constant-volume piezometry, x1 = 0.726 | 811.34
308.15 K, 50000 kPa, Constant-volume piezometry, x1 = 0.0248 | 998.04
308.15 K, 50000 kPa, Constant-volume piezometry, x1 = 0.04241 | 989.37
308.15 K, 50000 kPa, Constant-volume piezometry, x1 = 0.05887 | 980.26
308.15 K, 50000 kPa, Constant-volume piezometry, x1 = 0.08929 | 963.39
308.15 K, 50000 kPa, Constant-volume piezometry, x1 = 0.1125 | 951.52
308.15 K, 50000 kPa, Constant-volume piezometry, x1 = 0.1566 | 931.05
308.15 K, 50000 kPa, Constant-volume piezometry, x1 = 0.208 | 912.67
308.15 K, 50000 kPa, Constant-volume piezometry, x1 = 0.3023 | 885.81
308.15 K, 50000 kPa, Constant-volume piezometry, x1 = 0.4045 | 865.39
308.15 K, 50000 kPa, Constant-volume piezometry, x1 = 0.4827 | 853.93
308.15 K, 50000 kPa, Constant-volume piezometry, x1 = 0.5344 | 846.76
308.15 K, 50000 kPa, Constant-volume piezometry, x1 = 0.6029 | 839.04
308.15 K, 50000 kPa, Constant-volume piezometry, x1 = 0.726 | 827.94
308.15 K, 75000 kPa, Constant-volume piezometry, x1 = 0.0248 | 1006.97
308.15 K, 75000 kPa, Constant-volume piezometry, x1 = 0.04241 | 998.3
308.15 K, 75000 kPa, Constant-volume piezometry, x1 = 0.05887 | 989.51
308.15 K, 75000 kPa, Constant-volume piezometry, x1 = 0.08929 | 973.24
308.15 K, 75000 kPa, Constant-volume piezometry, x1 = 0.1125 | 961.84
308.15 K, 75000 kPa, Constant-volume piezometry, x1 = 0.1566 | 941.93
308.15 K, 75000 kPa, Constant-volume piezometry, x1 = 0.208 | 924
308.15 K, 75000 kPa, Constant-volume piezometry, x1 = 0.3023 | 897.73
308.15 K, 75000 kPa, Constant-volume piezometry, x1 = 0.4045 | 877.69
308.15 K, 75000 kPa, Constant-volume piezometry, x1 = 0.4827 | 866.59
308.15 K, 75000 kPa, Constant-volume piezometry, x1 = 0.5344 | 859.52
308.15 K, 75000 kPa, Constant-volume piezometry, x1 = 0.6029 | 851.9
308.15 K, 75000 kPa, Constant-volume piezometry, x1 = 0.726 | 841.27
308.15 K, 100000 kPa, Constant-volume piezometry, x1 = 0.0248 | 1015.14
308.15 K, 100000 kPa, Constant-volume piezometry, x1 = 0.04241 | 1006.32
308.15 K, 100000 kPa, Constant-volume piezometry, x1 = 0.05887 | 997.93
308.15 K, 100000 kPa, Constant-volume piezometry, x1 = 0.08929 | 982.34
308.15 K, 100000 kPa, Constant-volume piezometry, x1 = 0.1125 | 970.82
308.15 K, 100000 kPa, Constant-volume piezometry, x1 = 0.1566 | 951.42
308.15 K, 100000 kPa, Constant-volume piezometry, x1 = 0.208 | 933.91
308.15 K, 100000 kPa, Constant-volume piezometry, x1 = 0.3023 | 908.14
308.15 K, 100000 kPa, Constant-volume piezometry, x1 = 0.4045 | 888.2
308.15 K, 100000 kPa, Constant-volume piezometry, x1 = 0.4827 | 877.25
308.15 K, 100000 kPa, Constant-volume piezometry, x1 = 0.5344 | 870.36
308.15 K, 100000 kPa, Constant-volume piezometry, x1 = 0.6029 | 863.06
308.15 K, 100000 kPa, Constant-volume piezometry, x1 = 0.726 | 852.47
323.15 K, 101.3 kPa, Vibrating tube method, x1 = 0.0248 | 971.52
323.15 K, 101.3 kPa, Vibrating tube method, x1 = 0.04241 | 960.77
323.15 K, 101.3 kPa, Vibrating tube method, x1 = 0.05887 | 949.57
323.15 K, 101.3 kPa, Vibrating tube method, x1 = 0.08929 | 930.6
323.15 K, 101.3 kPa, Vibrating tube method, x1 = 0.1125 | 916.92
323.15 K, 101.3 kPa, Vibrating tube method, x1 = 0.1566 | 893.97
323.15 K, 101.3 kPa, Vibrating tube method, x1 = 0.208 | 873.34

Reference: the NIST ThermoML archive (doi:10.1016/j.jct.2012.09.026)
